Consider ten compounds from patent publication US20240091390A1, “IMPROVED CHOLECYSTOKININ-2 RECEPTOR (CCK2R) TARGETING FOR DIAGNOSIS AND THERAPY” (Medizinische Universität Innsbruck, priority 2021, published 2024).

Starred links: 1 amine or outer side, 2 acyl side, 3 side chain; linkers in the order of their positions; H or OH if unused. Non-standard residues stand in square brackets, D forms with d. Residues, ends and D or L forms follow the SMILES beside them. *: point of attachment. DOTA = O=C(O)CN1CCN(CC(=O)O)CCN(CC(=O)*)CCN(CC(=O)O)CC1; d(γGlu) = O=C(O)[C@@H](CCC(=O)[*:2])N[*:1]; 1Nal = N[C@@H](Cc1cccc2ccccc12)C(=O)O; NMeNle = CCCC[C@H](NC)C(=O)O; GABA = NCCCC(=O)O; βAla = NCCC(=O)O

The nature of series [1]: in vivo. The note with it: female, athymic BALB/c nude, mouse, iv, total radioactivity.
Procedure: (§1) For the induction of tumour xenografts, A431-CCK2R and A431-mock cells were injected subcutaneously in athymic BALB/c nude mice (Charles River or Janvier Labs), respectively (2 million cells in 200 μL). When tumours had reached a size of approximately 0.2 ml, biodistribution studies were carried out. Groups of 3-5 mice were injected intravenously via a lateral tail vein with the peptidomimetics, labelled with ^177Lu (0.5-1 MBq and 0.02-0.03 nmol peptidomimetic) or ^68Ga (˜0.5 MBq and 0.02-0.03 nmol peptidomimetic). […] After selected time points post-injection (p.i.) the animals were sacrificed by cervical dislocation, tumours and other tissues (blood, lung, heart, muscle, bone, spleen, intestine, liver, kidneys, stomach, pancreas) were removed, weighed, and their radioactivity measured in a gamma counter.
In further biodistribution studies the tumour uptake and imaging properties of different ^68Ga-labelled pepitdiomimetics was evaluated. For this purpose female athymic BALB/c nude mice (Janvier Labs, Le Genest Saint Isle, France) were inoculated with A431-CCK2R cells (left flank) at an age of 8-10 weeks.
For series [2], the system named is A431-CCK2R tumour xenografts. The note with it: mouse, in vivo.
Procedure: (§2) For the induction of tumour xenografts, A431-CCK2R and A431-mock cells were injected subcutaneously in athymic BALB/c nude mice (Charles River or Janvier Labs), respectively (2 million cells in 200 μL). When tumours had reached a size of approximately 0.2 ml, biodistribution studies were carried out. Groups of 3-5 mice were injected intravenously via a lateral tail vein with the peptidomimetics, labelled with ^177Lu (0.5-1 MBq and 0.02-0.03 nmol peptidomimetic) or ^68Ga (˜0.5 MBq and 0.02-0.03 nmol peptidomimetic). To check for receptor specificity blocking studies using co-injection of a 1000-fold molar excess of the unlabelled peptide (˜20 nmol) together with the administration of the ^177Lu-labelled peptide were performed (FIG. 3). After selected time points post-injection (p.i.) the animals were sacrificed by cervical dislocation, tumours and other tissues (blood, lung, heart, muscle, bone, spleen, intestine, liver, kidneys, stomach, pancreas) were removed, weighed, and their radioactivity measured in a gamma counter.
(§3) The biodistribution profile of ^177Lu-DOTA-MGSA and ^177Lu-DOTA-MGS5 over up to 7 days was studied in female athymic BALB/c nude mice, inoculated with A431-CCK2R cells (left flank) at an age of 6-8 weeks (5 animals per peptidomimetic and for each time point of 1 h, 24 h, 3 d and 7 d). When tumours had reached a size of approximately 0.1-0.2 ml, biodistribution studies were carried out.
Series [3] is described as follows: in vivo. The note with it: female, athymic BALB/c nude, mouse, iv, total radioactivity. This is another data set of the same source.
Procedure: (§4) Biodistribution studies evaluating the tumour uptake of the radiolabelled inventive CCK2R targeting peptide analogues were performed in xenografted nude mice.
as §1
(§5) Results were expressed as percentage of injected activity per gram tissue (% IA/g) and tumour to organ activity ratios were calculated from the activity measured in the dissected tissues (FIGS. 2 and 3).
The nature of series [4]: in vivo. The following applies: female, athymic BALB/c nude, mouse, iv, total radioactivity. This is another data set of the same source.
Procedure: as §2, §3
The target of the next series is T1, CCK2R (Homo sapiens, UniProt P32239).
T1 construct: expressed in transfected cells; host or cells: A431 cells (A431-CCK2R), provided by Dr. Luigi Aloj
T1 sequence (P32239 1-447): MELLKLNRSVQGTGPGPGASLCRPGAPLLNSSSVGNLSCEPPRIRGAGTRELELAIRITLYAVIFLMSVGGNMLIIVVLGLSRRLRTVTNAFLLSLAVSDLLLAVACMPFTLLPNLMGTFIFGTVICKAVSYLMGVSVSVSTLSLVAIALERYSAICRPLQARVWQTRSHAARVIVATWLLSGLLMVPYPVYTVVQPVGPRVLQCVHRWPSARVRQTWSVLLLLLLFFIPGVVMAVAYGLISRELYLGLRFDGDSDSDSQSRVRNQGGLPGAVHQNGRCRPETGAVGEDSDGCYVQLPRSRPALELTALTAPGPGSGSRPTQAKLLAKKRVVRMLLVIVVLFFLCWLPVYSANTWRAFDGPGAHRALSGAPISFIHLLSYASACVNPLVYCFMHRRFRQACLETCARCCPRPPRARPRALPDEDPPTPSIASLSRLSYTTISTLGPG
In words: Competition binding assay against [^125I][3-iodo-Tyr^12,Leu^15]gastrin-I on A431-CCK2R cells. The following applies: displacement of [^125I][3-iodo-Tyr^12,Leu^15]gastrin-I, 1 h at RT. On the procedure:
Affinity for CCK2R was studied in A431-CCK2R cells. […] Radioiodination of gastrin-I was carried out using the chloramine-T method. Non-carrier-added [^125I][3-iodo-Tyr^12,Leu^15]gastrin-I was obtained by HPLC purification and stored in aliquots at −20° C. Binding assays were carried out in 96-well filter plates (MultiScreenHTS-FB, Merck Group, Darmstadt, Germany) pretreated with 10 mM TRIS/139 mM NaCl pH 7.4 (2×250 μL). For the assay a number of 400,000 A431-CCK2R cells per well was prepared in 35 mM HEPES buffer pH 7.4 containing 10 mM MgCl2, 14 μM bacitracin and 0.5% BSA (a hypotonic solution disturbing the integrity of the cell membranes). The cells were incubated in triplicates with increasing concentrations of the peptidomimetics (0.0003 to 1,000 nM) and [^125I-Tyr^12]gastrin-I (˜25,000 cpm) for 1 h at RT. Incubation was interrupted by filtration of the medium and rapid rinsing with ice-cold 10 mM TRIS/139 mM NaCl pH 7.4 (2×200 μl) and the filters were counted in the gamma-counter. Half maximal inhibitory concentration (IC50) values were calculated following nonlinear regression with Origin software (Microcal Origin 6.1, Northampton, MA) and a representative assay was chosen for comparison.

The subject of series [5] is A431-CCK2R tumour xenografts. The following applies: ^68Ga-labelled, previously reported (Klingler M et al., J Nucl Med 2019); cited from earlier work.
Series [6] is described as follows: Stability against enzymatic degradation in vivo (radio-HPLC of blood). Details: species or system BALB/c mice. The note with it: ^177Lu-labelled; for percentage of intact radioligand present in the blood: 30 min p.i. On the procedure: To further characterise the stability of the radiolabelled peptidomimetic in vivo, metabolic studies were carried out in 5-6-week-old female BALB/c mice (Charles River, Sulzfeld, Germany) injected intravenously with ^177Lu-labelled and ^68Ga-labelled peptidomimetics. All animal experiments were conducted in compliance with the Austrian animal protection laws and with the approval of the Austrian Ministry of Science. To allow monitoring of the metabolites by radio-HPLC, mice were injected with a higher amount of radioactivity (20-40 MBq ^177Lu, corresponding to ˜1 nmol total peptide, or ˜10 MBq ^68Ga, corresponding to ˜1 nmol total peptide) through a lateral tail vein and euthanized by cervical dislocation at selected time points p.i. […] A sample of blood was collected and the degradation was assessed by radio-HPLC. For this purpose blood samples were precipitated with ACN, centrifuged at 2000 g for 2 min and diluted with water (1:1/v:v) prior to HPLC analysis using a Dionex chromatography system including radiodetection and UV detection equipped with a Phenomenex Jupiter Proteo C12 column (90 Å, 4 μm, 250×4.6 mm) column using a water/acetonitrile/0.1% TFA gradient system.

The test system of series [7] is A431-CCK2R tumour xenografts. Briefly: Biodistribution of ^177Lu-labelled peptidomimetics up to 7 days p.i. The note with it: difference not significant.
Procedure: as §2, §3
Series [8] can be described thus: Biodistribution of ^177Lu-labelled peptidomimetics at 4 h p.i. in xenografted nude mice. The note with it: female, athymic BALB/c nude, mouse, iv, total radioactivity.
Procedure: as §4, §1, §5
Series [9] deals with A431-CCK2R and A431-mock tumour xenografts. The note with it: ^177Lu-labelled, 4 h p.i., Klingler M et al., J Med Chem 2020; cited from earlier work.
[10] abbreviates: tumour uptake in A431-CCK2R xenografts.

For `CCCC[C@@H](C(=O)N[C@@H](CC(=O)O)C(=O)N[C@@H](Cc1cccc2ccccc12)C(N)=O)N(C)C(=O)[C@H](Cc1c[nH]c2ccccc12)NC(=O)CCNC(=O)CC(O)CNC(=O)CC(O)CNC(=O)CN1CCN(CC(=O)O)CCN(CC(=O)O)CCN(CC(=O)O)CC1` (single isomer, unassigned) [^68Ga-DOTA-MGSA, ^68Ga-DOTA-GABOB-GABOB-βAla-Trp-(NMe)Nle-Asp-1Nal-NH2, metal not drawn], the tissue to tissue ratio at 1 h in “in vivo [1]” was found to be 11.2 ± 0.8. Besides, the tissue uptake at 1 h amounted to 2.4 ± 0.2 %ID/g in the series “in vivo [1]” (kidney uptake) and 27 ± 0.2 %ID/g in “in vivo [1]” (setting [10]).
As to `CCCC[C@@H](C(=O)N[C@@H](CC(=O)O)C(=O)N[C@@H](Cc1cccc2ccccc12)C(N)=O)N(C)C(=O)[C@H](Cc1c[nH]c2ccccc12)NC(=O)CCNC(=O)CC(O)CNC(=O)CC(O)CNC(=O)CN1CCN(CC(=O)O)CCN(CC(=O)O)CCN(CC(=O)O)CC1` (single isomer, unassigned) [^177Lu-DOTA-MGSA, ^177Lu-DOTA-GABOB-GABOB-βAla-Trp-(NMe)Nle-Asp-1Nal-NH2, metal not drawn], in series [2], the “accumulation of radioactivity in kidneys compared to ^177Lu-DOTA-MGS5” value is on record as “significantly lower”. In addition, the tissue to tissue ratio at 4 h in “in vivo [3]” came out at 16.7 ± 2.7. Besides, the tissue uptake at 4 h in “in vivo [3]” (kidney uptake) is 2 ± 0.3 %ID/g. The tissue uptake at 4 h in the series “in vivo [3]” (setting [10]) is 32.1 ± 4.1 %ID/g. Also, in “in vivo [4]”, the tissue uptake at 1 h worked out at 56.3 ± 9.1 %ID/g and the tissue uptake at 168 h turned out to be 1.2 ± 0.5 %ID/g.
On to `CCCC[C@@H](C(=O)N[C@@H](CC(=O)O)C(=O)N[C@@H](Cc1cccc2ccccc12)C(N)=O)N(C)C(=O)[C@H](Cc1c[nH]c2ccccc12)NC(=O)CCNC(=O)CC(O)CNC(=O)CC(O)CNC(=O)CN1CCN(CC(=O)O)CCN(CC(=O)O)CCN(CC(=O)O)CC1` (stereo partly drawn) [DOTA-MGSA, DOTA-Gabob-Gabob-βAla-Trp-(NMe)Nle-Asp-1Nal-NH2], for which the IC50 at CCK2R was determined as 0.21 ± 0.01 nM.
On to `CCCC[C@@H](C(=O)N[C@@H](CC(=O)O)C(=O)N[C@@H](Cc1cccc2ccccc12)C(N)=O)N(C)C(=O)[C@H](Cc1c[nH]c2ccccc12)NC(=O)CCNC(=O)CCCNC(=O)CCCNC(=O)CN1CCN(CC(=O)O)CCN(CC(=O)O)CCN(CC(=O)O)CC1` [DOTA-MGSB, DOTA-Gaba-Gaba-βAla-Trp-(NMe)Nle-Asp-1Nal-NH2] ({DOTA-GABA-GABA-βAla}-W[NMeNle]D[1Nal]-NH2), for which, on CCK2R, the IC50 came to 0.31 ± 0.02 nM.
For the compound `CCCC[C@@H](C(=O)N[C@@H](CC(=O)O)C(=O)N[C@@H](Cc1cccc2ccccc12)C(N)=O)N(C)C(=O)[C@H](Cc1c[nH]c2ccccc12)NC(=O)CCNC(=O)CC[C@@H](NC(=O)CC[C@@H](NC(=O)CN1CCN(CC(=O)O)CCN(CC(=O)O)CCN(CC(=O)O)CC1)C(=O)O)C(=O)O` [DOTA-MGSC, DOTA-γDGlu-γDGlu-βAla-Trp-(NMe)Nle-Asp-1Nal-NH2] ({DOTA-d(γGlu)-d(γGlu)-βAla}-W[NMeNle]D[1Nal]-NH2), the IC50 on CCK2R came out at 0.16 ± 0.01 nM.
Consider `CCCC[C@@H](C(=O)N[C@@H](CC(=O)O)C(=O)N[C@@H](Cc1cccc2ccccc12)C(N)=O)N(C)C(=O)[C@H](Cc1c[nH]c2ccccc12)NC(=O)CNC(=O)[C@H](Cc1ccc(O)cc1)NC(=O)[C@H](C)NC(=O)[C@@H](CCC(=O)O)NC(=O)CN1CCN(CC(=O)O)CCN(CC(=O)O)CCN(CC(=O)O)CC1` [^68Ga-DOTA-MGS5, metal not drawn], for which, in series [5], the kidney uptake was 5.71±1.38 % IA/g and the tumour uptake is given as 23.3±4.7 % IA/g. For the same compound, the tissue to tissue ratio at 1 h in “in vivo [1]” came to 4.1 ± 0.3.
Consider `CCCC[C@@H](C(=O)N[C@@H](CC(=O)O)C(=O)N[C@@H](Cc1cccc2ccccc12)C(N)=O)N(C)C(=O)[C@H](Cc1c[nH]c2ccccc12)NC(=O)CCNC(=O)CC[C@@H](NC(=O)CC[C@@H](NC(=O)CN1CCN(CC(=O)O)CCN(CC(=O)O)CCN(CC(=O)O)CC1)C(=O)O)C(=O)O` [^68Ga-DOTA-MGSC, ^68Ga-DOTA-γDGlu-γDGlu-βAla-Trp-(NMe)Nle-Asp-1Nal-NH2, metal not drawn] ({DOTA-d(γGlu)-d(γGlu)-βAla}-W[NMeNle]D[1Nal]-NH2), for which the tissue to tissue ratio at 1 h in the series “in vivo [1]” worked out at 14.5 ± 0.6. The figures for the tissue uptake at 1 h in the series “in vivo [1]” (kidney uptake) and in “in vivo [1]” (setting [10]) were 2.5 ± 0.1 %ID/g and 36 ± 1.4 %ID/g, respectively.
As to `CCCC[C@@H](C(=O)N[C@@H](CC(=O)O)C(=O)N[C@@H](Cc1cccc2ccccc12)C(N)=O)N(C)C(=O)[C@H](Cc1c[nH]c2ccccc12)NC(=O)CNC(=O)[C@H](Cc1ccc(O)cc1)NC(=O)[C@H](C)NC(=O)[C@@H](CCC(=O)O)NC(=O)CN1CCN(CC(=O)O)CCN(CC(=O)O)CCN(CC(=O)O)CC1` [^177Lu-DOTA-MGS5, metal not drawn], in series [6] (10 min p.i.), the “percentage intact in the blood” value came out at 85.9%. Also, in [6], the “percentage of intact radioligand present in the blood” value was found to be 77.0%. The “uptake levels in the blood, comparison of the two peptidomimetics” value in [7] is reported as “somewhat lower uptake levels”. The tissue uptake at 4 h in [8] (kidney, kidney uptake, ^177Lu-labelled, 4 h p.i.) is 3.5 ± 0.9 %ID/g. Further, in series [8] (tumour and kidney), the tissue to tissue ratio at 4 h was determined as 7 ± 2.2.
For `CCCC[C@@H](C(=O)N[C@@H](CC(=O)O)C(=O)N[C@@H](Cc1cccc2ccccc12)C(N)=O)N(C)C(=O)[C@H](Cc1c[nH]c2ccccc12)NC(=O)CNC(=O)[C@H](Cc1ccc(O)cc1)NC(=O)[C@@H]1CCCN1C(=O)[C@@H](CCC(=O)O)NC(=O)CN1CCN(CC(=O)O)CCN(CC(=O)O)CCN(CC(=O)O)CC1` [^177Lu-DOTA-MGS8, metal not drawn] ({DOTA}-[dE]PYGW[NMeNle]D[1Nal]-NH2; C-terminus assumed), the “percentage of intact radioligand present in the blood” value in [6] came out at 56.8%. Besides, the “tumour uptake in A431-CCK2R xenografts” value in series [9] is reported as 34.7±9.4 % IA/g.
In the case of `CCCC[C@H](NC(=O)[C@H](Cc1c[nH]c2ccccc12)NC(=O)CNC(=O)[C@H](Cc1ccc(O)cc1)NC(=O)[C@H](C)NC(=O)[C@@H](CCC(=O)O)NC(=O)[C@@H](CCC(=O)O)NC(=O)[C@@H](CCC(=O)O)NC(=O)[C@@H](CCC(=O)O)NC(=O)[C@@H](CCC(=O)O)NC(=O)[C@@H](CCC(=O)O)NC(=O)CN1CCN(CC(=O)O)CCN(CC(=O)O)CCN(CC(=O)O)CC1)C(=O)N[C@@H](CC(=O)O)C(=O)N[C@@H](Cc1ccccc1)C(N)=O` [^177Lu-PP-F11N, DOTA-DGlu-DGlu-DGlu-DGlu-DGlu-DGlu-Ala-Tyr-Gly-Trp-Nle-Asp-Phe-NH2, metal not drawn], the “percentage of intact radioligand present in the blood” value in [6] amounted to 12.7%.
